The values that follow come from article PMC6171417, “Carbonic anhydrase inhibition with a series of novel benzenesulfonamide-triazole conjugates” (Journal of Enzyme Inhibition and Medicinal Chemistry, 2018).

One assay relates to U251. Kind of assay: cells. The arrangement: species or system NCI human tumour cell line panel; NCI one-dose anti-proliferative screen, human tumour cell line panel, growth inhibition percent (GI%). The conditions noted are these: Homo sapiens, U-251; growth inhibition (GI%), single dose. As for the experimental part:
(§1) Ten of the newly synthesised 1,2,3-triazolo benzenesulfonamide derivatives were selected by NCI (Bethesda, MD) for evaluating their anti-proliferative activity. The selected compounds were subjected to a primary in vitro one-dose ([…]) anti-proliferative assay against 57 human tumour cell lines following the previously reported method[30] and their obtained growth inhibition percent (GI%) are presented in Table 2. A subset of ten triazolo-benzenesulfonamides (3, 5, 6, 7, 9, 11, 16–18, and 20) were selected and subjected to an in vitro anti-proliferative screening against a panel of 57 cancer cell lines at NCI at an initial high dose ([…]). The human cell lines used were derived from nine cancer types: leukaemia, lung, colon, CNS, melanoma, ovarian, renal, prostate and breast cancers.

A further assay deals with NCI/ADR-RES. Kind of assay: cells. The arrangement: species or system NCI human tumour cell line panel; NCI one-dose anti-proliferative screen, human tumour cell line panel, growth inhibition percent (GI%). The conditions noted are these: Homo sapiens, NCI/ADR-RES; growth inhibition (GI%), single dose. On the procedure: as §1
The next assay has as its system T-47D. Kind of assay: cells. The arrangement: species or system NCI human tumour cell line panel; NCI one-dose anti-proliferative screen, human tumour cell line panel, growth inhibition percent (GI%). The conditions noted are these: Homo sapiens, T47D; growth inhibition (GI%), single dose. As for the experimental part:
as §1

The subject of another assay is EKVX. Kind of assay: cells. Set-up: species or system NCI human tumour cell line panel; NCI one-dose anti-proliferative screen, human tumour cell line panel, growth inhibition percent (GI%). As to conditions: Homo sapiens, EKVX; growth inhibition (GI%), single dose. As for the experimental part:
as §1

In a further assay the test system is PC-3. Kind of assay: cells. Set-up: species or system NCI human tumour cell line panel; NCI one-dose anti-proliferative screen, human tumour cell line panel, growth inhibition percent (GI%). As to conditions: Homo sapiens, PC-3; growth inhibition (GI%), single dose. On the procedure:
as §1

A further assay deals with NCI-H522. Kind of assay: cells. The arrangement: species or system NCI human tumour cell line panel; NCI one-dose anti-proliferative screen, human tumour cell line panel, growth inhibition percent (GI%). The conditions noted are these: Homo sapiens, NCI-H522; growth inhibition (GI%), single dose. On the procedure:
as §1

The test system of the next assay is HOP-62. Kind of assay: cells. Set-up: species or system NCI human tumour cell line panel; NCI one-dose anti-proliferative screen, human tumour cell line panel, growth inhibition percent (GI%). The conditions noted are these: Homo sapiens, HOP-62; growth inhibition (GI%), single dose. On the procedure:
as §1

A further assay has as its system NCI-H226. Kind of assay: cells. The arrangement: species or system NCI human tumour cell line panel; NCI one-dose anti-proliferative screen, human tumour cell line panel, growth inhibition percent (GI%). As to conditions: Homo sapiens, NCI-H226; growth inhibition (GI%), single dose. As for the experimental part:
as §1

The test system of a further assay is HCT-15. Kind of assay: cells. Set-up: species or system NCI human tumour cell line panel; NCI one-dose anti-proliferative screen, human tumour cell line panel, growth inhibition percent (GI%). The conditions noted are these: Homo sapiens, HCT-15; growth inhibition (GI%), single dose. On the procedure: as §1
The subject of a further assay is MDA-MB-435. Kind of assay: cells. Set-up: species or system NCI human tumour cell line panel; NCI one-dose anti-proliferative screen, human tumour cell line panel, growth inhibition percent (GI%). The conditions noted are these: Homo sapiens, MDA-MB-435; growth inhibition (GI%), single dose. On the procedure:
as §1

The test system of a further assay is SW-620. Kind of assay: cells. As to conditions: Homo sapiens, SW-620; growth inhibition (GI%), single dose. The arrangement: species or system NCI human tumour cell line panel; NCI one-dose anti-proliferative screen, human tumour cell line panel, growth inhibition percent (GI%). As for the experimental part: as §1
A further assay has as its system SN12C. Kind of assay: cells. The arrangement: species or system NCI human tumour cell line panel; NCI one-dose anti-proliferative screen, human tumour cell line panel, growth inhibition percent (GI%). As to conditions: Homo sapiens, SN12C; growth inhibition (GI%), single dose. On the procedure:
as §1

In another assay the test system is MDA-MB-468. Kind of assay: cells. The conditions noted are these: Homo sapiens, MDA-MB-468; growth inhibition (GI%), single dose. Set-up: species or system NCI human tumour cell line panel; NCI one-dose anti-proliferative screen, human tumour cell line panel, growth inhibition percent (GI%). On the procedure:
as §1

Another assay concerns LOX IMVI. Kind of assay: cells. The conditions noted are these: Homo sapiens, LOX IMVI; growth inhibition (GI%), single dose. The arrangement: species or system NCI human tumour cell line panel; NCI one-dose anti-proliferative screen, human tumour cell line panel, growth inhibition percent (GI%). On the procedure:
as §1

Another assay relates to OVCAR-4. Kind of assay: cells. Set-up: species or system NCI human tumour cell line panel; NCI one-dose anti-proliferative screen, human tumour cell line panel, growth inhibition percent (GI%). The conditions noted are these: Homo sapiens, OVCAR-4; growth inhibition (GI%), single dose. As for the experimental part:
as §1

For a further assay, the system named is NCI-H322M. Kind of assay: cells. The arrangement: species or system NCI human tumour cell line panel; NCI one-dose anti-proliferative screen, human tumour cell line panel, growth inhibition percent (GI%). As to conditions: Homo sapiens, NCI-H322M; growth inhibition (GI%), single dose. On the procedure:
as §1

The target in another assay is T1, hCA I (Homo sapiens, UniProt P00915).
T1 construct: gene CA1; recombinant, obtained in-house as reported earlier; cytosolic
T1 sequence (P00915 2-261): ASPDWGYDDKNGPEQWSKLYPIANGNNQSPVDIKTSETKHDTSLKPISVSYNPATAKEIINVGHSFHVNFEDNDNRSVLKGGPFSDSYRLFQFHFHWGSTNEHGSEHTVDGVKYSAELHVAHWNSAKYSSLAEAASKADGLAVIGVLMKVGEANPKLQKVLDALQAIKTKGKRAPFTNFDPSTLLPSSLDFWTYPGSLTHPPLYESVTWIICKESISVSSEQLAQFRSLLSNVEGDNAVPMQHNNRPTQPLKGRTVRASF
Kind of assay: stopped-flow CO2 hydrase assay. The format is biochemical. The source says: stopped-flow CO2 hydrase assay on hCA I

Another assay has as its system M14. Kind of assay: cells. The arrangement: species or system NCI human tumour cell line panel; NCI one-dose anti-proliferative screen, human tumour cell line panel, growth inhibition percent (GI%). The conditions noted are these: Homo sapiens, M14; growth inhibition (GI%), single dose. On the procedure:
as §1

In a further assay the test system is IGROV1. Kind of assay: cells. The arrangement: species or system NCI human tumour cell line panel; NCI one-dose anti-proliferative screen, human tumour cell line panel, growth inhibition percent (GI%). As to conditions: Homo sapiens, IGROV-1; growth inhibition (GI%), single dose. On the procedure:
as §1

In the next assay the test system is MALME-3M. Kind of assay: cells. As to conditions: Homo sapiens, Malme-3M; growth inhibition (GI%), single dose. Set-up: species or system NCI human tumour cell line panel; NCI one-dose anti-proliferative screen, human tumour cell line panel, growth inhibition percent (GI%). On the procedure: as §1

Turning to `N#Cc1nnn(-c2ccc(S(N)(=O)=O)cc2)c1/N=C/c1ccc(Cl)cc1` [compound 9, 9], the inhibition at 10 µM with U251 is 4.7%; in the assay with NCI/ADR-RES, 5.4%; in the assay with T-47D, 11.5%; in the assay with EKVX, 4.2%; in the assay with PC-3, 9.3%; in the assay with NCI-H522 it was 10.5%. In addition, the inhibition at 10 µM worked out at 0.1% in the assay with HOP-62, 4.8% in the assay with NCI-H226, 4.3% in the assay with HCT-15 and 3.4% with MDA-MB-435.
Regarding `Nc1nc(=S)[nH]c2c1nnn2-c1ccc(S(N)(=O)=O)cc1` [compound 18, 4-(7-amino-5-thioxo-4,5-dihydro-3H-[1,2,3]triazolo[4,5-d]pyrimidin-3-yl)benzenesulfonamide], the inhibition at 10 µM with T-47D was 5.8%; with EKVX it was 3.7%; in the assay on PC-3, 7.8%; with SW-620 it was 4.3%; in the assay on SN12C, 1.2%; in the assay with NCI-H522, 13.7%. Moreover, the inhibition at 10 µM in the assay on MDA-MB-468 amounted to 3.5%; in the assay on LOX IMVI it was 7.5%; in the assay with OVCAR-4, 7.9%; in the assay on NCI-H322M, 2.2%; in the assay on HOP-62, 4.8%; in the assay with NCI-H226, 9.8%. The affinity on hCA I, expressed as Ki, was 955 nM.
Take `N#Cc1nnn(-c2ccc(S(N)(=O)=O)cc2)c1N` [compound 3, 3]: the inhibition at 10 µM with U251 was 0.6%; in the assay on T-47D, 5.1%; in the assay with EKVX it was 8.7%; in the assay with PC-3, 8.3%; in the assay on SW-620 it was 5.1%; in the assay on SN12C it was 1.1%. Besides, the inhibition at 10 µM amounted to 9.7% in the assay with NCI-H522; 2.7% in the assay on M14; 6.1% with LOX IMVI; 4.1% in the assay with OVCAR-4; 0% in the assay with NCI-H322M; 8% with HOP-62. Besides, the values for the inhibition at 10 µM with NCI-H226 and in the assay with MDA-MB-435 were 5.2% and 3.1%, respectively.
`N#Cc1c(-c2ccc(Cl)cc2)nc2c(nnn2-c2ccc(S(N)(=O)=O)cc2)c1N` [compound 16, 4-(7-amino-5-(4-chlorophenyl)-6-cyano-3H-[1,2,3]triazolo[4,5-b]pyridin-3-yl)benzenesulfonamide]: the inhibition at 10 µM in the assay with U251 turned out to be 2.7%; in the assay on NCI/ADR-RES it was 4.2%; in the assay with T-47D, 5.6%; in the assay on EKVX, 39.5%; in the assay on PC-3, 22.2%; with IGROV1, 16.4%. In addition, the inhibition at 10 µM in the assay with SN12C came to 8.9%; in the assay on NCI-H522, 9.8%; in the assay on LOX IMVI, 20.4%; in the assay on OVCAR-4, 21.6%; in the assay on HOP-62, 7.3%; in the assay with NCI-H226, 9.8%. Also, the values for the inhibition at 10 µM with HCT-15 and in the assay with MDA-MB-435 were 1.6% and 2.9%, respectively. This molecule also showed an inhibition constant Ki on hCA I of 605 nM.
`CN(C)c1ccc(-c2nc3c(nnn3-c3ccc(S(N)(=O)=O)cc3)c(N)c2C#N)cc1` [compound 17, 4-(7-amino-6-cyano-5-(4-(dimethylamino)phenyl)-3H-[1,2,3]triazolo[4,5-b]pyridin-3-yl)benzenesulfonamide]: the inhibition at 10 µM with U251 was determined as 12.6%; in the assay on T-47D it was 5.2%; with EKVX, 17.2%; in the assay on PC-3, 13.8%; in the assay on IGROV1 it was 12.1%; in the assay with SW-620, 2.7%. The inhibition at 10 µM worked out at 4.7% in the assay with SN12C; 14.8% with NCI-H522; 3.2% in the assay on MDA-MB-468; 3.5% in the assay on M14; 9.6% in the assay with LOX IMVI; 0.8% in the assay with OVCAR-4. The inhibition at 10 µM with NCI-H322M was 3.9%; in the assay on HOP-62, 21.7%; with NCI-H226 it was 16.9%; in the assay on HCT-15, 1.2%; with MALME-3M, 0.4%. On hCA I, the Ki was found to be 683 nM.
For the molecule `N#Cc1nnn(-c2ccc(S(N)(=O)=O)cc2)c1NS(=O)(=O)c1ccccc1` [compound 11, N-(4-cyano-1-(4-sulfamoylphenyl)-1H-1,2,3-triazol-5-yl)benzenesulfonamide], the inhibition at 10 µM in the assay on U251 amounted to 10.9%; in the assay with NCI/ADR-RES it was 3.2%; in the assay on T-47D, 9.6%; in the assay on EKVX it was 2%; with PC-3, 9.7%; in the assay with IGROV1, 3.3%. In addition, the inhibition at 10 µM was 2.3% with SW-620; 1.6% with SN12C; 10.3% in the assay with NCI-H522; 3.3% in the assay with M14; 2.6% with NCI-H322M; 4.2% in the assay on HOP-62. The molecule also had an inhibition at 10 µM with MALME-3M of 1.2%. Besides, the Ki on hCA I was 5550 nM.
As for `CCn1c(=S)[nH]c2c(nnn2-c2ccc(S(N)(=O)=O)cc2)c1=N` [compound 20, 4-(6-ethyl-7-imino-5-thioxo-4,5,6,7-tetrahydro-3H-[1,2,3]triazolo[4,5-d]pyrimidin-3-yl)benzenesulfonamide], the inhibition at 10 µM turned out to be 1.9% in the assay with U251; 2.2% in the assay with NCI/ADR-RES; 3.1% in the assay with EKVX; 9.7% with PC-3; 0.9% with SN12C; 7.8% in the assay on NCI-H522. The results for the inhibition at 10 µM in the assay with LOX IMVI, with NCI-H322M and in the assay with NCI-H226 were 4.6%, 3.2% and 6.9%, respectively. Moreover, the affinity at hCA I, expressed as Ki, was 909 nM.

Usually inhibition stands for the drop in the measured response relative to a control, in per cent. A low value points to a response near the control. Usually Ki stands for a dissociation constant, usually derived from enzyme kinetics or from competition with a known ligand. High values mean lower affinity, low ones higher affinity.
